{"source": "patent EP4459287A1", "about": "“METHODS AND TOOLS FOR DETECTING THE IMPACT OF COMPOUNDS ON PROTEIN, RNA OR DNA INTERACTIONS” (Synsight \"Génopole Entreprises\", priority 2023, dated 2024)", "key": {"TDP-43": {"system": "TDP-43", "assay": "Four TDP-43 tests (stress granule enrichment, subcellular localization, CFTR alternative splicing, G146A aggregation)", "assay_type": "cell-based", "source_text": "The 13 selected compounds have then been tested in the three cellular tests, i.e. enrichment of wt TDP-43 in stress granules and their subcellular localization in presence of the compounds to be tested, and the effects of the compounds to be tested on the alternative splicing of the cystic fibrosis transmembrane conductance regulator (CFTR) gene by wt TDP-43. Finally, the effects of the 13 compounds on the aggregation of the G146A mutant of TDP-43 has been tested."}, "p53/MDM2 interaction": {"target": "T1, p53/MDM2 interaction (Homo sapiens, UniProt Q00987)", "T1 construct": "Human p53 and MDM2 full length cDNA were amplified by PCR; expressed in transfected cells; host or cells: U-2 OS (human osteosarcoma)", "T1 sequence (Q00987 whole entry)": "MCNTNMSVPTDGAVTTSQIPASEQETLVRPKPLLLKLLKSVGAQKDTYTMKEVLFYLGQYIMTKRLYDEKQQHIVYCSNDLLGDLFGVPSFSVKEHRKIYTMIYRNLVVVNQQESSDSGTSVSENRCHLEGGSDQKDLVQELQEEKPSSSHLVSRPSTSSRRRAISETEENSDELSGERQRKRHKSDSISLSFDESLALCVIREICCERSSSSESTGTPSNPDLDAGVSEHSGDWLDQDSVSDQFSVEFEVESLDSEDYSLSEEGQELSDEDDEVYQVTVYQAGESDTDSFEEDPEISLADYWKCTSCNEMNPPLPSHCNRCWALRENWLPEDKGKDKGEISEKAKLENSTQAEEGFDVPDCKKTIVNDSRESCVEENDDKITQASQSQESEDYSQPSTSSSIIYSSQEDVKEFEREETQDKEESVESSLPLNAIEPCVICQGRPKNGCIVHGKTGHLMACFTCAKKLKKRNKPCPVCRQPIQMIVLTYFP", "assay": "MT bench cell-based assay of p53/MDM2 interaction on HCS (PCC co-localization score)", "conditions": "for inhibition of the p53/MDM2 interaction: U-2 OS cells", "description": "The MT bench was done using Human Osteosarcoma (U-2 OS) cell line which is the reference for cellular imagery. U-2 OS cells were cultured at 37°C in a humidified atmosphere with 5% CO2 in Dulbecco's modified Eagle's medium (DMEM, Life Technologies) supplemented with 10% FBS (Fetal Bovine Serum, Life Technologies) and 1% penicillin/streptomycin.\nThe generation of the cellular plate (seeding, transfection, treatment) was done automatically using the liquid handler BRAVO from Agilent equipped with a 96-LT (Large Tips) head. U-2 OS cells were seeded on black 96-well plates cell carrier ultra (PerkinElmer) at a density of 18.000 cells per well and after 24h incubation in a humidified incubator at 37°C with 5% CO2 were co-transfected with 12µg human p53-FL(SEQ ID N°15)_C_RFP- MBD and 03µg human MDM2-FL(SEQ ID N°21)_C_GFP plasmids for the positive control (untreated condition) or 12µg human p53-F19AW23AL26A(SEQ ID N°20)_C_RFP-MBD and 0.3µg human MDM2-FL(SEQ ID N°21)_C_GFP plasmids corresponding to the negative control (non-interacting condition / treated condition) using 0.5µg Lipofectamine 2000 (Invitrogen) in optiMEM for 18h.\nAfter 18h of transfection, cells were fixed with ice-cold methanol 100% for 10min at -20°C, washed with PBS and then further fixed with 4% Para FormAldehyde (PFA) in PBS freshly prepared for 10min at RT. […] After washing with PBS, cell nuclei were stained with DAPI (0.1µg/mL) for 5min at RT and samples kept into PBS for fluorescence microscopy imaging. The cellular fluorescent signal was acquired on HCS imaging system Opera Phenix from PerkinElmer, using a 40X water immersion 1.1NA objective and with Harmony® software.\nAfter image acquisition, successive building blocks from Harmony® software was used for image segmentation (find nuclei, find cytoplasm, and select population through threshold on GFP and RFP maximum and mean intensities, as well as cell area). Both images were then filtered using SER Ridge filters to highlight microtubule structures in the cytoplasm.\nThe PCC is a well-established correlation score to measure co-localization and calculated as follows [formula] where Ri and Gi are the pixel intensity values and Rav and Gav are the means of red and green channel, respectively. The values are range between +1 (perfect correlation) to -1 (perfect inverse correlation), with 0 being the absence of co-localization. Thus, the PCC values reflect the co-localization between bait and prey proteins into cytoplasm, translating the interaction on the microtubule network.\nThis normalization was done by extrapolating the PCC values relatively to the controls, by using the mean of negative control wells and the mean of positive control wells."}, "[1]": {"conditions": "cellular data, Vu et al., 2013; read-out: IC50 MTT assay; cited from earlier work"}, "MDM2-FL_C_GFP (human)": {"target": "MDM2-FL_C_GFP (human) (UniProt Q00987)", "sequence (Q00987 whole entry)": "as above", "assay": "MT bench normalized PCC score, fixed U-2 OS cells"}}, "data": [{"molecule": "Nc1ncnc2c1c(I)cn2[C@@H]1O[C@H](CO)[C@@H](O)[C@H]1O", "note": "[5-iodotubercidin]", "values": [{"measurement": "effect in the four tests", "setting": "TDP-43", "result": "showed an effect on at least two of the four tests"}]}, {"molecule": "O=C1C(=O)c2ccccc2-c2ccccc21", "note": "[9,10-Phenanthrenequinone]", "values": [{"measurement": "effect in the four tests", "setting": "TDP-43", "result": "showed an effect on at least two of the four tests"}]}, {"molecule": "O=C1Nc2ccc3ncsc3c2C1=Cc1cnc[nH]1", "note": "[PKRi]", "values": [{"measurement": "effect in the four tests", "setting": "TDP-43", "result": "showed an effect on at least two of the four tests"}]}, {"molecule": "CCOc1cc(C(C)(C)C)ccc1C1=N[C@@](C)(c2ccc(Cl)cc2)[C@@](C)(c2ccc(Cl)cc2)N1C(=O)N1CCN(CCCS(C)(=O)=O)CC1", "note": "[RG7112]", "values": [{"measurement": "inhibition of the p53/MDM2 interaction", "setting": "p53/MDM2 interaction; 0.05µM (low concentration)", "result": "weak inhibition of the interaction"}, {"measurement": "inhibition of the p53/MDM2 interaction", "setting": "p53/MDM2 interaction; 0.5µM (medium concentration)", "result": "moderate inhibition of the interaction"}, {"measurement": "inhibition of the p53/MDM2 interaction", "setting": "p53/MDM2 interaction; 5µM (high concentration)", "result": "strong inhibition of the interaction"}, {"measurement": "inhibition of the p53/MDM2 interaction", "setting": "p53/MDM2 interaction; 50µM (high concentration)", "result": "strong inhibition of the interaction"}, {"measurement": "disruption of p53/MDM2 interaction and re-localization of MDM2 in the nucleus", "setting": "p53/MDM2 interaction; increasing concentrations 0.05µM, 0.5µM, 5µM, 50µM, fixed U-2 OS cells", "result": "dose-dependent manner"}, {"measurement": "IC50", "setting": "[1]", "result": 0.4, "unit": "µM"}]}, {"molecule": "p53-F19A_C_RFP-MBD", "values": [{"measurement": "percent of the interaction abrogated (against wild-type p53)", "setting": "MDM2-FL_C_GFP (human)", "result": "> 90", "unit": "%"}]}]}
